{"source": "patent US20080207569A1", "about": "“Methods for the treatment of liver diseases” (priority 2007, published 2008)", "key": {"[1]": {"system": "bile duct ligation (BDL) induced liver injury and hepatic fibrosis", "test": "Bile duct ligation model of liver fibrosis", "type": "in vivo, C57/BL6 wild-type mice", "conditions": "10 mg/kg once a day by gavage", "protocol": "The bile duct ligation model is a well characterized model of liver fibrosis. Briefly, C57/BL6 wild-type mice 6 to 8 weeks of age were subjected to bile duct ligation (BDL) for 14 days. Sham-operated wild type mice were used as controls. Either RO 113-0830 or CMC (carboxymethylcellulose) were administered by gavage in a dose of 10 mg/kg body weight once a day. Hepatocyte apoptosis was quantified by the TUNEL assay and immunofluorescence for activated caspases 3/7. Liver injury was assessed by histopathology, and quantification of bile infarcts. Hepatic fibrosis was assessed by Sirius red staining and quantitative morphometry. Real-time polymerase chain reaction (PCR) was used to measure mRNA transcripts for collagen 1 alpha (I) and alpha-smooth muscle actin."}, "Fas-induced liver damage": {"system": "Fas-induced liver damage", "test": "Fas driven model of liver damage (activating antibody Jo-2), plasma ALT activity", "type": "in vivo, male C57B1/6 mice", "conditions": "10 mg/kg PO; six hours after Jo-2 IV; average of 2 studies, p<0.05 in each", "protocol": "(§1) In vivo efficacy of RO-113-0830 was assessed using male C57B1/6 mice (Simonsen Labs) in two well-established models of liver damage. The mice were allowed to acclimate for at least three days.\nIn a Fas driven model of liver damage, an activating antibody to Fas (Jo-2) was administered IV. Six hours later, animals were anesthetized with Nembutal (50 mg/kg IP), and blood was taken by cardiac puncture. Plasma ALT activity was determined using a kit from Sigma-Aldrich."}, "[2]": {"system": "TNF-α/D-Galactosamine induced liver injury", "test": "TNF-α model of liver injury (TNFα/D-Gln), plasma ALT activity", "type": "in vivo, male C57B1/6 mice", "protocol": "TNF-α is a cytokine that is implicated in inducing liver injury in a variety of acute and chronic liver diseases such as chronic HCV and acute liver failure. An exemplary in vivo model to test pharmacological agents against TNF-α induced injury is the TNF-α/D-Gal model of liver injury in mice. In this model, mice are treated with TNF-α/D-Gal and compound is administered to evaluate its ability to protect against liver damage. The compound is administered either before, at the time of or after the treatment with TNF-α/D-Gal, and followed for a period of approximately 6 hours. […]\nMultiple outcome measures are used for this evaluation. […] The extent of liver damage can be graded by examining liver samples prepared and evaluated microscopically by trained observers. […] In certain embodiment, compounds described herein protect against TNF-α/D-Gal induced liver injury as determined by these parameters. In certain embodiment, compounds described herein protect against Fas induced liver injury as determined by these parameters. […]\nIn vivo efficacy of RO-113-0830 was assessed using male C57B1/6 mice (Simonsen Labs) in two well-established models of liver damage. […]\nIn the TNF-α model of liver injury, D-Galactosamine (D-Gln) (800 mg/kg) and TNFα (20 or 40 μg/kg) were injected IP. […] Plasma ALT activity was determined using a kit from Sigma-Aldrich."}, "[3]": {"system": "full-length HCV replicon in Huh7 human hepatoma cell line (21-5)", "test": "HCV RNA replicon antiviral evaluation assay", "type": "cell-based, hepatitis C virus", "conditions": "72 hr; HCV RNA replicon levels by TaqMan RT-PCR; read-out: EC50 (concentration inhibition virus replication by 50%)", "description": "The assay was conducted as described by Pietschmann, T. et al., supra.\nHuman interferon alpha-2b was included in each run as a positive control compound. Subconfluent cultures of the ET line were plated out into 96-well plates that were dedicated for the analysis of cell numbers (cytotoxicity) or antiviral activity and the next day drugs were added to the appropriate wells. Cells were processed 72 hr later when the cells were still sub-confluent. HCV RNA replicon levels and the toxic concentration of drug that reduces cell numbers, as indicated by host cell ribosomal RNA (rRNA) levels, were assessed by TaqMan RT-PCR. The EC50 (concentration inhibition virus replication by 50%), IC50 (concentration decreasing cell viability by 50%) and SI50 (selective index: IC50/EC50) values were calculated."}, "[4]": {"system": "TNF-α/D-Galactosamine induced liver injury", "test": "TNF-α model of liver injury, 24 hour survival", "type": "in vivo, male C57B1/6 mice", "conditions": "TNF-α/D-Gln IP; average from 3 studies; p=0.03 vs control mice (27±7.3%)", "protocol": "TNF-α is a cytokine that is implicated in inducing liver injury in a variety of acute and chronic liver diseases such as chronic HCV and acute liver failure. An exemplary in vivo model to test pharmacological agents against TNF-α induced injury is the TNF-α/D-Gal model of liver injury in mice. In this model, mice are treated with TNF-α/D-Gal and compound is administered to evaluate its ability to protect against liver damage. The compound is administered either before, at the time of or after the treatment with TNF-α/D-Gal, and followed for a period of approximately 6 hours. Allowing this model to persist past 6 hours is a variation used to determine the improved survival afforded by compound treatment.\nas §1\nTo determine a benefit on survival, TNF-α model, D-Galactosamine (D-Gln) (800 mg/kg) and TNF-α (20 or 40 μg/kg) were injected IP, and mice were allowed to survive for 24 hours post insult. All morbid mice were euthanized with 125 mg/kg of Nembutal IP. The average 24 hour survival from 3 studies was 27±7.3% and. 55±7.6% (p=0.03) in the TNFα/D-Gln control mice and RO-113-0830-treated mice, respectively."}, "[5]": {"system": "Huh7 human hepatoma cell line (the 21-5 cell line)", "conditions": "read-out: IC50 for cytotoxicity (concentration decreasing cell viability by 50%); 72 hr; host cell rRNA levels by TaqMan RT-PCR", "text": "Cells were processed 72 hr later when the cells were still sub-confluent."}}}
{"compound": "O=C(NO)C1(CS(=O)(=O)c2ccc(Oc3ccc(Cl)cc3)cc2)CCOCC1", "note": "[RO-113-0830]", "values": [{"measurement": "reduction of Sirius red staining of hepatic collagen", "setting": "[1]; 14 days of BDL", "result": 3, "unit": "fold"}, {"measurement": "reduction in the number of bile infarcts vs vehicle", "setting": "[1]; 14 days of BDL, histologic examination", "result": "> 70", "unit": "%"}, {"measurement": "decrease in TUNEL-positive hepatocytes vs vehicle", "setting": "[1]; 14 days of BDL, p<0.01", "result": 3, "unit": "fold"}, {"measurement": "decrease in caspase 3/7-positive hepatocytes vs vehicle", "setting": "[1]; 14 days of BDL, p<0.01", "result": 5, "unit": "fold"}, {"measurement": "reduction of hepatic mRNA for alpha-smooth muscle actin vs vehicle", "setting": "[1]; 14 days of BDL, real-time PCR", "result": "> 60", "unit": "%"}, {"measurement": "reduction of hepatic mRNA for collagen I vs vehicle", "setting": "[1]; 14 days of BDL, real-time PCR", "result": "> 60", "unit": "%"}, {"measurement": "overall animal survival following 14 days of BDL", "setting": "[1]; p<0.05", "result": "significantly enhanced"}, {"measurement": "reduction of Fas-induced elevation in plasma ALT activity", "setting": "Fas-induced liver damage", "result": 50, "unit": "%"}, {"measurement": "plasma ALT activity, effect in words", "setting": "[2]; 0.001-30 mg/kg PO 30 minutes before insult, six hours", "result": "dose-dependently decreased plasma ALT activity"}, {"measurement": "ED50 for decrease of plasma ALT activity", "setting": "[2]; PO by gavage 30 minutes before TNFα/D-Gln insult, ALT six hours later, average from 4 studies", "result": "0.26 ± 0.08", "unit": "mg/kg"}, {"measurement": "EC50", "setting": "[3]", "result": 0.07, "unit": "µM"}, {"measurement": "24 hour survival", "setting": "[4]", "result": "55±7.6", "unit": "%"}, {"measurement": "IC50", "setting": "[5]", "result": "~25", "unit": "µM"}]}
